ChEMBL document CHEMBL1201862, “PubChem BioAssay data set” (2004)
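Growth conditions: 96-well plates. Treatment: test compound, 48 hours, 5 concentrations. Analysis: linear interpolation between bracketing concentrations; unreached endpoints set to highest concentration. GI50: concentration for 50% inhibition of growth.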 Active and inactive are the calls of the source. No stated cut-off is given here; in the data, active = GI50 up to about 1.1 µM and inactive = higher.

What was measured:
Assay in all cases: growth of human tumour cells (NCI), 48 h
[1] = system: 786-0
[2] = system: A498
[3] = system: A549
[4] = system: ACHN
[5] = system: CAKI-1
[6] = system: CCRF-CEM
[7] = system: COLO 205
[8] = system: DLD-1
[9] = system: DMS-114
[10] = system: DMS-273
[11] = system: EKVX
[12] = system: HCC 2998
[13] = system: HCT-116
[14] = system: HCT-15
[15] = system: HL-60
[16] = system: HOP-62
[17] = system: HOP-92
[18] = system: HT-29
[19] = system: IGROV-1
[20] = system: K562
[21] = system: KM-20L2
[22] = system: KM12
[23] = system: LOX IMVI
[24] = system: LXFL 529
[25] = system: M14
[26] = system: M19-MEL
[27] = system: MOLT-4
[28] = system: Malme-3M
[29] = system: NCI-H226
[30] = system: NCI-H23
[31] = system: NCI-H460
[32] = system: NCI-H522
[33] = system: OVCAR-3
[34] = system: OVCAR-4
[35] = system: OVCAR-5
[36] = system: OVCAR-8
[37] = system: RPMI-8226
[38] = system: RXF 393
[39] = system: RXF 631
[40] = system: SF-268
[41] = system: SF-295
[42] = system: SF-539
[43] = system: SK-MEL-28
[44] = system: SK-MEL-2
[45] = system: SK-MEL-5
[46] = system: SK-OV-3
[47] = system: SN12C
[48] = system: SNB-19
[49] = system: SNB-75
[50] = system: SNB-78
[51] = system: SW-620
[52] = system: TK-10
[53] = system: U-251
[54] = system: UACC-257
[55] = system: UACC-62
[56] = system: UO-31
[57] = system: XF498
[58] = system: HOP-18
[59] = system: SR

O=C1C(=O)N(c2ccc(Cl)cc2)C(=O)C(=O)C1c1nc2ccccc2o1
GI50 [1]: > 100 µM (inactive)
GI50 [2]: > 100 µM (inactive)
GI50 [3]: > 100 µM (inactive)
GI50 [4]: > 100 µM (inactive)
GI50 [5]: > 100 µM (inactive)
GI50 [6]: > 100 µM (inactive)
GI50 [7]: > 100 µM (inactive)
GI50 [8]: > 100 µM (inactive)
GI50 [9]: > 100 µM (inactive)
GI50 [10]: > 100 µM (inactive)
GI50 [11]: > 100 µM (inactive)
GI50 [12]: > 100 µM (inactive)
GI50 [13]: > 100 µM (inactive)
GI50 [14]: > 100 µM
GI50 [15]: > 100 µM (inactive)
GI50 [16]: > 100 µM (inactive)
GI50 [17]: > 100 µM (inactive)
GI50 [18]: > 100 µM (inactive)
GI50 [19]: > 100 µM (inactive)
GI50 [20]: > 100 µM (inactive)
GI50 [21]: > 100 µM (inactive)
GI50 [22]: > 100 µM (inactive)
GI50 [23]: > 100 µM (inactive)
GI50 [24]: > 100 µM (inactive)
GI50 [25]: > 100 µM (inactive)
GI50 [26]: > 100 µM (inactive)
GI50 [27]: > 100 µM (inactive)
GI50 [28]: > 100 µM (inactive)
GI50 [29]: > 100 µM (inactive)
GI50 [30]: > 100 µM (inactive)
GI50 [31]: > 100 µM (inactive)
GI50 [32]: > 100 µM (inactive)
GI50 [33]: > 100 µM (inactive)
GI50 [34]: > 100 µM (inactive)
GI50 [35]: > 100 µM (inactive)
GI50 [36]: > 100 µM (inactive)
GI50 [37]: > 100 µM (inactive)
GI50 [38]: > 100 µM (inactive)
GI50 [39]: > 100 µM (inactive)
GI50 [40]: > 100 µM (inactive)
GI50 [41]: > 100 µM (inactive)
GI50 [42]: > 100 µM (inactive)
GI50 [43]: > 100 µM (inactive)
GI50 [44]: > 100 µM (inactive)
GI50 [45]: > 100 µM (inactive)
GI50 [46]: > 100 µM (inactive)
GI50 [47]: > 100 µM (inactive)
GI50 [48]: > 100 µM (inactive)
GI50 [49]: > 100 µM (inactive)
GI50 [50]: > 100 µM (inactive)
GI50 [51]: > 100 µM (inactive)
GI50 [52]: > 100 µM (inactive)
GI50 [53]: > 100 µM (inactive)
GI50 [54]: > 100 µM (inactive)
GI50 [55]: > 100 µM (inactive)
GI50 [56]: > 100 µM (inactive)
GI50 [57]: > 100 µM (inactive)

CN1CCC(SC2Cc3cc(Cl)ccc3Sc3ccccc32)CC1 (configuration not stated)
GI50 [1]: 13 µM (inactive)
GI50 [2]: 16.1 µM (inactive)
GI50 [3]: 15.3 µM (inactive)
GI50 [4]: 14.6 µM (inactive)
GI50 [5]: 10.7 µM (inactive)
GI50 [7]: 12.9 µM (inactive)
GI50 [8]: 14 µM (inactive)
GI50 [10]: 12.5 µM (inactive)
GI50 [11]: 18.5 µM (inactive)
GI50 [12]: 8.93 µM (inactive)
GI50 [13]: 10.4 µM (inactive)
GI50 [14]: 15.7 µM
GI50 [15]: 4.15 µM (inactive)
GI50 [58]: 13.5 µM (inactive)
GI50 [16]: > 10 µM (inactive)
GI50 [17]: 11.7 µM (inactive)
GI50 [18]: 4.24 µM (inactive)
GI50 [19]: 14.7 µM (inactive)
GI50 [20]: 5.04 µM (inactive)
GI50 [21]: 5.27 µM (inactive)
GI50 [22]: 10.3 µM (inactive)
GI50 [23]: 11.5 µM (inactive)
GI50 [24]: 13.1 µM (inactive)
GI50 [25]: 4 µM (inactive)
GI50 [26]: 12.7 µM (inactive)
GI50 [27]: 4.24 µM (inactive)
GI50 [28]: 14.2 µM (inactive)
GI50 [29]: 15.1 µM (inactive)
GI50 [30]: 14.1 µM (inactive)
GI50 [31]: 12.2 µM (inactive)
GI50 [32]: 13.9 µM (inactive)
GI50 [33]: 13.6 µM (inactive)
GI50 [34]: 14.7 µM (inactive)
GI50 [35]: 16.7 µM (inactive)
GI50 [36]: 17.3 µM (inactive)
GI50 [37]: 7.29 µM (inactive)
GI50 [38]: 3.66 µM (inactive)
GI50 [39]: 13.3 µM (inactive)
GI50 [40]: 11.8 µM (inactive)
GI50 [41]: 15.9 µM (inactive)
GI50 [42]: 16.4 µM (inactive)
GI50 [43]: 2.12 µM (inactive)
GI50 [45]: 13.5 µM (inactive)
GI50 [46]: 15.8 µM (inactive)
GI50 [47]: 14.6 µM (inactive)
GI50 [48]: 15.6 µM (inactive)
GI50 [49]: 8.79 µM (inactive)
GI50 [59]: 8.18 µM (inactive)
GI50 [51]: 13.6 µM (inactive)
GI50 [52]: 13 µM (inactive)
GI50 [53]: 13.6 µM (inactive)
GI50 [54]: 7.96 µM (inactive)
GI50 [55]: 3.33 µM (inactive)
GI50 [56]: 3.86 µM (inactive)
GI50 [57]: 16 µM (inactive)
